The values below come from patent US11530244B2, “Cyclic polypeptides for PCSK9 inhibition” (priority 2018, dated 2022).

Starred links: 1 amine or outer side, 2 acyl side, 3 side chain; linkers in the order of their positions; H or OH if unused. Positions of bridges follow the written chain, without caps; N, C: chain ends. Non-standard residues stand in square brackets, D forms with d. Residues, ends and D or L forms follow the SMILES beside them. Triazole bridges read from a SMILES are 1,4-linked. Nle(6-ylidene) = O=C([C@H](CCCC=[*:3])N[*:1])[*:2]; X25 = O=C([C@H](Cc1cccc(OCC=[*:3])c1)N[*:1])[*:2]; Phe(4-COOH) = N[C@@H](Cc1ccc(C(=O)O)cc1)C(=O)O; Trp(5-F) = N[C@@H](Cc1c[nH]c2ccc(F)cc12)C(=O)O; Trp(6-F) = N[C@@H](Cc1c[nH]c2cc(F)ccc12)C(=O)O; Phe(4-CH2NH2) = NCc1ccc(C[C@H](N)C(=O)O)cc1; Trp(1-Me) = Cn1cc(C[C@H](N)C(=O)O)c2ccccc21; Bip = N[C@@H](Cc1ccc(-c2ccccc2)cc1)C(=O)O; Lys(N3) = [N-]=[N+]=NCCCC[C@H](N)C(=O)O; Pro(4S-NH2) = N[C@@H]1CN[C@H](C(=O)O)C1; X4 = O=C(CCSCc1cccc(CSCCN[*:1])c1)[*:2]; Orn(N3) = [N-]=[N+]=NCCC[C@H](N)C(=O)O; 2Nal = N[C@@H](Cc1ccc2ccccc2c1)C(=O)O; X23 = CC[C@@]1(C(=O)[*:2])CCCN1[*:1]; mXylylene = c1cc(C[*:1])cc(C[*:2])c1; X47 = O=C(O)CCCCC(N[*:1])C(=O)[*:2]; Adipoyl = O=C(CCCCC(=O)[*:2])[*:1]; X39 = c1cc(CCSCN[*:2])cc(C[*:1])c1; NMeT = CN[C@H](C(=O)O)[C@@H](C)O; β3hT = C[C@@H](O)[C@H](N)CC(=O)O; dNMeL = CN[C@H](CC(C)C)C(=O)O; αMeP = C[C@@]1(C(=O)O)CCCN1; dPra = C#CC[C@@H](N)C(=O)O; Orn = NCCC[C@H](N)C(=O)O; Nva = CCC[C@H](N)C(=O)O; Mpa = O=C(O)CCS

Experiment [1] addresses human PCSK9 / human LDLR EGFa domain interaction (Homo sapiens (Human), UniProt Q8NBP7). Nature of the experiment: TR-FRET assay of inhibition of the PCSK9-LDLR protein-protein interaction. The settings on record: TR-FRET, 20 nM human PCSK9, 20 nM human LDLR EGFa domain, 2 hours room temperature; read-out: IC50. It is filed as binding. The procedure, abridged:
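20 nM biotin-avitag PCSK9 + 20 nM His-LDLR EGFa; 5 nM Ulight-SA / 5 nM Eu-anti-His; 2 h RT; HEPES 50 mM, NaCl 150 mM, CaCl2 5 mM, 0.01% BSA, 0.01% P20. Half-maximal inhibition, 4-parameter fit.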
On the technique in general: Time-resolved FRET reads energy transfer from a long-lived donor to a nearby acceptor.

A further experiment has as its target PCSK9 (Homo sapiens (Human), UniProt Q8NBP7). Nature of the experiment: PCSK9 Alexa FRET Standard assay (displacement of AlexaFluor647 tagged cyclic peptide Reagent A). The settings on record: PCSK9 Alexa FRET Standard assay, 0.5 nM PCSK9, 20 nM AF cyclic peptide Reagent A; read-out: IC50. It is filed as binding. The procedure, abridged: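 TR-FRET displacement: 0.5 nM biotinylated PCSK9 with 1.25 nM Strep-Eu and 20 nM AlexaFluor-tagged cyclic peptide (final) in 50 mM HEPES pH 7.4, 0.15 M NaCl, 5 mM CaCl2, 0.01% BSA, 0.01% P20, ≥2 h at room temperature. IC50 from sigmoidal fit, converted to Ki via peptide KD; falling Eu counts flagged false positives.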

Chain of human PCSK9 / human LDLR EGFa domain interaction (Q8NBP7 153-692): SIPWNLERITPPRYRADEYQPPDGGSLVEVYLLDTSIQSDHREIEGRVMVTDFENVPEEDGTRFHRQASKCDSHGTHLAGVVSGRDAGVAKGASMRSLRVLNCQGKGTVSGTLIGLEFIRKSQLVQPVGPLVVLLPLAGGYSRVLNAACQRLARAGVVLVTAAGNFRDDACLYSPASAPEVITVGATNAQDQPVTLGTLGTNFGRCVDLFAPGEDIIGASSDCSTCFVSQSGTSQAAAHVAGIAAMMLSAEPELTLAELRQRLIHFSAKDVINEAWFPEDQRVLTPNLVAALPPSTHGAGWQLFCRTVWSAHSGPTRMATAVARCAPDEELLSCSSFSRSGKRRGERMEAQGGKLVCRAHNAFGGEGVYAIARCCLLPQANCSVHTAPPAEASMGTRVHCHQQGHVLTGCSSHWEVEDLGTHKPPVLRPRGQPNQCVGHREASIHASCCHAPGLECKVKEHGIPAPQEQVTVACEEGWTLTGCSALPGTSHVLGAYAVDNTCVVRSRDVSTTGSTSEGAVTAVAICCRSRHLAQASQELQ
Chain of human PCSK9 / human LDLR EGFa domain interaction (Q8NBP7 31-152 partner): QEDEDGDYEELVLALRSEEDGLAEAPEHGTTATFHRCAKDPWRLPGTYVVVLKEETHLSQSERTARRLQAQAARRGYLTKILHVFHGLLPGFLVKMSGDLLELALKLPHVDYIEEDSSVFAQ
Chain of PCSK9 (Q8NBP7 153-692): as the sequence (Q8NBP7 153-692) above

With `NCCCC[C@@H]1NC(=O)CCSCc2cccc(c2)CSC[C@@H](C(N)=O)NC(=O)[C@@H]2CCCN2C(=O)[C@H](Cc2ccc(O)cc2)NC(=O)[C@H](Cc2c[nH]cn2)NC(=O)[C@H](CC(=O)O)NC(=O)[C@H](Cc2c[nH]c3ccc(F)cc23)NC(=O)[C@H](Cc2ccc(-c3ccccc3)cc2)NC(=O)CNC1=O` [Compound 210] ([Mpa]KG[Bip][Trp(5-F)]DHYPC-NH2; linker 1-10 via mXylylene), the IC50 (in experiment [1]; on PCSK9) was 1 to 12.1 µM in each case.
Consider `C[C@@H]1NC(=O)CCCCC(=O)NCc2ccc(cc2)C[C@@H](C(N)=O)NC(=O)[C@]2(C)CCCN2C(=O)[C@H](Cc2ccc(O)cc2)NC(=O)[C@H](Cc2cnc[nH]2)NC(=O)[C@H](CC(=O)O)NC(=O)[C@H](Cc2c[nH]c3ccc(F)cc23)NC(=O)[C@H](Cc2c[nH]c3ccc(F)cc23)NC(=O)CNC1=O` [Compound 370] (AG[Trp(5-F)][Trp(5-F)]DHY[αMeP][Phe(4-CH2NH2)]-NH2; linker N-9 via Adipoyl), for which the IC50 in experiment [1] was in the range of 0.0001 to 0.1 µM; at PCSK9, 0.1 to 1 µM.
Regarding `CC[C@@]12CCCN1C(=O)[C@H](Cc1ccc(O)cc1)NC(=O)[C@H]([C@@H](C)O)NC(=O)[C@@H]1CCCN1C(=O)[C@H](Cc1c[nH]c3ccc(F)cc13)NC(=O)[C@H](Cc1c[nH]c3ccc(F)cc13)NC(=O)CNC(=O)[C@H](CCCCN)NC(=O)CCSCc1cccc(c1)CSC[C@@H](C(N)=O)NC2=O` [Compound 045] ([Mpa]KG[Trp(5-F)][Trp(5-F)]PTY[X23]C-NH2; linker 1-10 via mXylylene), the IC50 (in experiment [1]; on PCSK9) was 1 to 12.1 µM throughout.
Take `COc1ccc(C[C@@H]2NC(=O)[C@H](Cc3cnc[nH]3)NC(=O)[C@H](CC(=O)O)NC(=O)[C@H](Cc3c[nH]c4cc(F)ccc34)NC(=O)[C@H](Cc3c[nH]c4ccc(F)cc34)NC(=O)[C@@H](C)NC(=O)[C@H](CCCCN)NC(=O)CCCc3cn(nn3)-c3ccc(cc3)C[C@@H](C(N)=O)NC(=O)[C@]3(C)CCCN3C2=O)cc1` [Compound 369]: the IC50 in experiment [1] was in the range of 0.0001 to 0.1 µM; on PCSK9 it was 0.1 to 1 µM.
The corresponding values for `CC(=O)N[C@@H]1Cc2cn(nn2)CCCC[C@@H](C(N)=O)NC(=O)[C@]2(C)CCCN2C(=O)[C@H](Cc2ccc(O)cc2)NC(=O)[C@H](Cc2cnc[nH]2)NC(=O)[C@H](CC(=O)O)NC(=O)[C@H](Cc2c[nH]c3ccc(F)cc23)NC(=O)[C@H](Cc2c[nH]c3ccc(F)cc23)NC(=O)CNC1=O` [Compound 336] (Ac-[dPra]G[Trp(5-F)][Trp(5-F)]DHY[αMeP][Lys(N3)]-NH2; triazole 1-9) are 0.0001 to 0.1 µM and 0.1 to 1 µM.
As for `CC(=O)N[C@H]1CCCc2cn(nn2)CCC[C@@H](C(N)=O)NC(=O)[C@]2(C)CCCN2C(=O)[C@H](Cc2ccc(O)cc2)NC(=O)[C@H](Cc2cnc[nH]2)NC(=O)[C@H](CC(=O)O)NC(=O)[C@H](Cc2c[nH]c3ccc(F)cc23)NC(=O)[C@H](Cc2c[nH]c3ccc(F)cc23)NC(=O)CNC(=O)[C@H](C)NC1=O` [Compound 342], the IC50 (in experiment [1]; on PCSK9) was 1 to 12.1 µM each time.
`CC(=O)N[C@H]1CCCCNC(=O)c2ccc(cc2)C[C@@H](C(N)=O)NC(=O)[C@]2(C)CCCN2C(=O)[C@H](Cc2ccc(O)cc2)NC(=O)[C@H](Cc2cnc[nH]2)NC(=O)[C@H](CC(=O)O)NC(=O)[C@H](Cc2c[nH]c3cc(F)ccc23)NC(=O)[C@H](Cc2c[nH]c3ccc(F)cc23)NC(=O)CNC(=O)[C@H](C)NC1=O` [Compound 312] (Ac-KAG[Trp(5-F)][Trp(6-F)]DHY[αMeP][Phe(4-COOH)]-NH2; lactam 1-10): the IC50 lay in the range of 0.1 to 1 µM in experiment [1] and 1 to 12.1 µM at PCSK9.
As for `COc1ccc(C[C@@H]2NC(=O)[C@@H]3CCCCCCCO[C@H]4C[C@@H](C(=O)N3)N(C4)C(=O)[C@H](Cc3c[nH]c4ccc(F)cc34)NC(=O)[C@H](Cc3c[nH]c4ccc(F)cc34)NC(=O)[C@@H](C)NC(=O)[C@H](CCCCN)NC(=O)CCSCc3cccc(c3)CSC[C@@H](C(N)=O)NC(=O)[C@]3(C)CCCN3C2=O)cc1` [Compound 511], the IC50 was 0.1 to 1 µM in experiment [1] and 0.00011 to 0.1 µM at PCSK9.
Take `COc1ccc(C[C@@H]2NC(=O)C(CCCCC(=O)O)NC(=O)[C@@H]3C[C@H](N)CN3C(=O)[C@H](Cc3c[nH]c4ccc(F)cc34)NC(=O)[C@H](Cc3c[nH]c4ccc(F)cc34)NC(=O)[C@@H](C)NC(=O)[C@H](CCCN=[N+]=[N-])NC(=O)CCSCc3cccc(c3)CCSCNC(=O)[C@]3(C)CCCN3C2=O)cc1` (stereo partly drawn) [Compound 388] ([Mpa][Orn(N3)][dA][Trp(5-F)][Trp(5-F)][Pro(4S-NH2)][X47]Y(Me)[αMeP]; linker 1-C via X39): the IC50 was 0.0001 to 0.1 µM in experiment [1] and 0.1 to 1 µM at PCSK9.
Take `COc1ccc(C[C@@H]2NC(=O)[C@H]([C@@H](C)O)NC(=O)[C@@H]3CCC/C=C/COc4cccc(c4)C[C@H](NC(=O)[C@@H](C)NC(=O)[C@H](CCCCN)NC(=O)CCSCc4cccc(c4)CSCCNC(=O)[C@]4(C)CCCN4C2=O)C(=O)N[C@@H](Cc2c[nH]c4ccc(F)cc24)C(=O)N3)cc1` [Compound 494] (cyclo(K[dA][X25][Trp(5-F)][Nle(6-ylidene)]TY(Me)[αMeP][X4]); staple (E) 3-5): the IC50 (in experiment [1]; at PCSK9) was 1 to 12.1 µM each time.
Take `C[C@H]1NC(=O)[C@H](CCCCN)NC(=O)CCSCc2cccc(c2)CSC[C@@H](C(N)=O)NC(=O)[C@]2(C)CCCN2C(=O)[C@H](Cc2ccc(O)cc2)NC(=O)[C@H]([C@@H](C)O)NC(=O)[C@@H]2CCCN2C(=O)[C@H](Cc2c[nH]c3ccc(F)cc23)NC(=O)[C@H](Cc2c[nH]c3ccc(F)cc23)NC1=O` [Compound 044] ([Mpa]K[dA][Trp(5-F)][Trp(5-F)]PTY[αMeP]C-NH2; linker 1-10 via mXylylene): the IC50 (in experiment [1]; at PCSK9) was 0.1 to 1 µM in each case.
As to `C[C@@H](O)[C@H]1CC(=O)N[C@@H](Cc2ccc(O)cc2)C(=O)N2CCC[C@@]2(C)C(=O)N[C@H](C(N)=O)CSCc2cccc(c2)CSCCC(=O)N[C@@H](CCCCN)C(=O)NCC(=O)N[C@@H](Cc2c[nH]c3ccc(F)cc23)C(=O)N[C@@H](Cc2c[nH]c3ccc(F)cc23)C(=O)N2CCC[C@H]2C(=O)N1` [Compound 051] ([Mpa]KG[Trp(5-F)][Trp(5-F)]P[β3hT]Y[αMeP]C-NH2; linker 1-10 via mXylylene), the IC50 in experiment [1] was 0.0001 to 0.1 µM; on PCSK9 it was 0.00011 to 0.1 µM.
Consider `CC(=O)N[C@H]1CCCNC(=O)c2ccc(cc2)C[C@@H](C(N)=O)NC(=O)[C@]2(C)CCCN2C(=O)[C@H](Cc2ccc(O)cc2)NC(=O)[C@H](Cc2cnc[nH]2)NC(=O)[C@H](CC(=O)O)NC(=O)[C@H](Cc2c[nH]c3cc(F)ccc23)NC(=O)[C@H](Cc2c[nH]c3ccc(F)cc23)NC(=O)CNC(=O)[C@H](C)NC1=O` [Compound 314] (Ac-[Orn]AG[Trp(5-F)][Trp(6-F)]DHY[αMeP][Phe(4-COOH)]-NH2; lactam 1-10), for which the values for the IC50 (in experiment [1]; on PCSK9) were 0.1 to 1 µM and 1 to 12.1 µM, respectively.
As to `NCCCC[C@@H]1NC(=O)CCSCc2cccc(c2)CSC[C@@H](C(N)=O)NC(=O)[C@@H]2CCCN2C(=O)[C@H](Cc2ccc(O)cc2)NC(=O)[C@H](Cc2c[nH]cn2)NC(=O)[C@H](CC(=O)O)NC(=O)[C@H](Cc2c[nH]c3ccc(F)cc23)NC(=O)[C@H](Cc2c[nH]c3ccc(F)cc23)NC(=O)CNC1=O` [Compound 149] ([Mpa]KG[Trp(5-F)][Trp(5-F)]DHYPC-NH2; linker 1-10 via mXylylene), the IC50 (in experiment [1]; at PCSK9) was 1 to 12.1 µM throughout.
For the molecule `CC(C)C[C@H]1NC(=O)[C@H](CCCCN)NC(=O)CCSCc2cccc(c2)CSC[C@@H](C(N)=O)NC(=O)[C@]2(C)CCCN2C(=O)[C@H](Cc2ccc(O)cc2)NC(=O)[C@H](Cc2cnc[nH]2)NC(=O)[C@H](CC(=O)O)NC(=O)[C@H](Cc2c[nH]c3ccc(F)cc23)NC(=O)[C@H](Cc2c[nH]c3ccc(F)cc23)NC1=O` [Compound 373] ([Mpa]K[dL][Trp(5-F)][Trp(5-F)]DHY[αMeP]C-NH2; linker 1-10 via mXylylene), the IC50 fell in the range of 0.0001 to 0.1 µM in experiment [1] and 0.1 to 1 µM at PCSK9.
Taken in the same sequence, the figures for `CCC[C@@H]1NC(=O)CCSCc2cccc(c2)CSC[C@@H](C(N)=O)NC(=O)[C@@H]2CCCN2C(=O)[C@H](Cc2ccc(OC)cc2)NC(=O)[C@H]([C@@H](C)OC)N(C)C(=O)[C@@H]2CCCN2C(=O)[C@H](Cc2cn(C)c3ccccc23)NC(=O)[C@H](Cc2ccc3ccccc3c2)NC(=O)[C@@H](CC(C)C)N(C)C1=O` [Compound 046] ([Mpa][Nva][dNMeL][2Nal][Trp(1-Me)]P[NMeT](Me)Y(Me)PC-NH2; linker 1-10 via mXylylene) were 0.0001 to 0.1 µM and 0.00011 to 0.1 µM.

What is called IC50 is the concentration that inhibits the measured activity by half.
